ChEMBL document CHEMBL1201862, “PubChem BioAssay data set” (2004)
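The compound was tested at five concentrations on cells cultured in 96-well plates, with a 48-hour exposure period. GI50 = concentration required for 50% inhibition of growth.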 Calls of active or inactive are those of the source. No stated cut-off is given here; in the data, active = GI50 up to about 1.1 µM and inactive = higher.

How the values were obtained:
Test in all cases: DTP human tumour cell line panel, 48 h
[1] = tested on: 786-0
[2] = tested on: A498
[3] = tested on: A549
[4] = tested on: ACHN
[5] = tested on: BT-549
[6] = tested on: CAKI-1
[7] = tested on: CCRF-CEM
[8] = tested on: COLO 205
[9] = tested on: DU-145
[10] = tested on: EKVX
[11] = tested on: HCC 2998
[12] = tested on: HCT-116
[13] = tested on: HCT-15
[14] = tested on: HL-60
[15] = tested on: HOP-62
[16] = tested on: HOP-92
[17] = tested on: HT-29
[18] = tested on: Hs-578T
[19] = tested on: IGROV-1
[20] = tested on: K562
[21] = tested on: KM12
[22] = tested on: LOX IMVI
[23] = tested on: M14
[24] = tested on: MCF7
[25] = tested on: MDA-MB-231
[26] = tested on: MDA-MB-435
[27] = tested on: MDA-N
[28] = tested on: MOLT-4
[29] = tested on: Malme-3M
[30] = tested on: NCI-H226
[31] = tested on: NCI-H23
[32] = tested on: NCI-H460
[33] = tested on: NCI-H522
[34] = tested on: NCI/ADR-RES
[35] = tested on: OVCAR-3
[36] = tested on: OVCAR-4
[37] = tested on: OVCAR-5
[38] = tested on: OVCAR-8
[39] = tested on: PC-3
[40] = tested on: RPMI-8226
[41] = tested on: RXF 393
[42] = tested on: SF-268
[43] = tested on: SF-295
[44] = tested on: SF-539
[45] = tested on: SK-MEL-28
[46] = tested on: SK-MEL-2
[47] = tested on: SK-MEL-5
[48] = tested on: SK-OV-3
[49] = tested on: SN12C
[50] = tested on: SNB-19
[51] = tested on: SNB-75
[52] = tested on: SR
[53] = tested on: SW-620
[54] = tested on: T47D
[55] = tested on: TK-10
[56] = tested on: U-251
[57] = tested on: UACC-257
[58] = tested on: UACC-62
[59] = tested on: UO-31

For `COC(C)(C)[C@@H](O)[C@H]1C[C@H](C)[C@@]2(CC[C@]3(C)[C@@H]2CC[C@@H]2[C@@]4(C)CC[C@@H](OC(C)=O)C(C)(C)[C@@H]4C[C@@H](OC4OC(COC(C)=O)C(O)C(O)C4O)[C@]23C)O1` (some centres undefined), the GI50 [1] was 5.86 µM (inactive), the GI50 [2] was 6.41 µM (inactive) and the GI50 [3] was 4.01 µM (inactive). For the same compound, the GI50 [4] was 5.86 µM (inactive), the GI50 [5] was 4.86 µM (inactive) and the GI50 [6] was 8.43 µM (inactive). For the same compound, the GI50 [7] was 3.3 µM (inactive), the GI50 [8] was 2.38 µM (inactive) and the GI50 [9] was 4.37 µM (inactive). For the same compound, the GI50 [10] was 5.74 µM (inactive), the GI50 [11] was 0.662 µM (active) and the GI50 [12] was 3.25 µM (inactive). The GI50 [13] was 2.39 µM, the GI50 [14] was 2.1 µM (inactive) and the GI50 [15] was 12.3 µM (inactive). The GI50 [16] was 4.8 µM (inactive), the GI50 [17] was 1.89 µM (inactive) and the GI50 [18] was 6.76 µM (inactive). For the same compound, the GI50 [19] was 4.39 µM (inactive), the GI50 [20] was 3.79 µM (inactive) and the GI50 [21] was 1.79 µM (inactive). For the same compound, the GI50 [22] was 3.9 µM (inactive), the GI50 [23] was 4.8 µM (inactive) and the GI50 [24] was 2.86 µM (inactive). The GI50 [25] was 8.83 µM (inactive), the GI50 [26] was 3.29 µM (inactive) and the GI50 [27] was 5.43 µM (inactive). For the same compound, the GI50 [28] was 2.32 µM (inactive), the GI50 [29] was 10.5 µM (inactive) and the GI50 [30] was 4.75 µM (inactive). The GI50 [31] was 10.2 µM (inactive), the GI50 [32] was 4.37 µM (inactive) and the GI50 [33] was 4.04 µM (inactive). The GI50 [34] was 7.43 µM (inactive), the GI50 [35] was 4.26 µM (inactive) and the GI50 [36] was 3.48 µM (inactive). For the same compound, the GI50 [37] was 2.54 µM (inactive), the GI50 [38] was 5.33 µM (inactive) and the GI50 [39] was 2.63 µM (inactive). For the same compound, the GI50 [40] was 2.42 µM (inactive), the GI50 [41] was 4.1 µM (inactive) and the GI50 [42] was 4.98 µM (inactive). For the same compound, the GI50 [43] was 4.51 µM (inactive), the GI50 [44] was 10.1 µM (inactive) and the GI50 [45] was 7.57 µM (inactive). For the same compound, the GI50 [46] was 4.75 µM (inactive), the GI50 [47] was 6.53 µM (inactive) and the GI50 [48] was 4.7 µM (inactive). For the same compound, the GI50 [49] was 6.43 µM (inactive), the GI50 [50] was 8.73 µM (inactive) and the GI50 [51] was 4.46 µM (inactive). The GI50 [52] was 2.52 µM (inactive), the GI50 [53] was 6.81 µM (inactive) and the GI50 [54] was 4.14 µM (inactive). For the same compound, the GI50 [55] was 12.2 µM (inactive), the GI50 [56] was 5.7 µM (inactive) and the GI50 [57] was 6.44 µM (inactive). For the same compound, the GI50 [58] was 4.93 µM (inactive) and the GI50 [59] was 4.67 µM (inactive).
